Source: patent US9133199B2, “Pyrimidine derivatives as protein kinase inhibitors” (Cyclacel Limited, priority 2007, dated 2015)
Counter-ions that a name gives are not always drawn. Like-named read-outs stand apart in the source and are kept apart here.

Legend:
[1] = target: human PLK1 (Homo sapiens (Human), UniProt P53350); test: PLK1 protein kinase assay (CDC25C phosphorylation, [γ-32P]-ATP); format: biochemical
Source text: A full-length human CDC25C clone was isolated by PCR from HeLa mRNA and was inserted on a BamHI-HindIII fragment into pRsetA. The amino terminal fragment of CDC25C (encoding residues 1-300) was excised from this vector and inserted into pET28a (between the NcoI and BamHI sites). Expression was under the control of the T7 promoter, and the encoded protein contained a His6 tag at the carboxyl terminus. The vector was transformed into E. coli strain BRL(DE3) pLysS for expression experiments. CDC25C was expressed in BL21(DE3) RIL bacteria cells, grown in LB media at 37° C. until OD600 nm of 0.6 was reached. The expression was induced with 1 mM IPTG and the bacterial culture was grown further for 3 h. The bacteria were harvested by centrifugation and the cell pellet was re-suspended in 50 mM Tris pH 7.5 and 10% sucrose, flash frozen, and stored at −70° C. until used. CDC25C protein was purified from E. coli inclusion bodies. The inclusion bodies were isolated in a buffer (50 mM Tris pH 8.0, 2 mM EDTA, 100 mM NaCl, 0.5% triton X-100). After denaturation in the presence of 6 M urea, the protein was refolded via slow dialysis of the urea. The protein was stored in 25 mM Tris pH 8.0, 100 mM NaCl, 1 mM DTT, 1 mM EDTA and 10% glycerol at −70° C. until used.
The 3′ primer ([sequence]) incorporated a stop codon prior to the EcoR1 site. The PCR product was cloned into the Nhe1/EcoR1 sites of a baculovirus expression vector, pSSP1. […] Sf9 cells of a passage number less than 20 were split back to give a 300 mL culture volume, at a cell density of 1.5×10^6 cells/mL. Cells were only used for expression in logarithmic growth phase. PLK1 baculovirus (from P2 amplification) was added to give a multiplicity of infection of 3, this is equivalent to 3 virus particles for each insect cell. The flasks were incubated at 27° C., with shaking at 100 r.p.m. for 48 h. On harvest, cell density and viability was determined, the cultures spun down at 2500 r.p.m. for 5 min and washed with ice-cold phosphate-buffered saline. The wash was re-spun at the same speed and the pellet was snap frozen. PLK1 protein was purified on a metal affinity column.
PLK1 protein kinase assays were carried out using a 96−well plate format by incubating CDC25C (2 μg/well) with PLK1 (1 μg/well) in 20 mM Tris/HCl buffer pH 7.5, supplemented with 25 mM β-glycerophosphate, 5 mM EGTA, 1 mM DTT and 1 mM NaVO3. Serial dilutions of test compound in assay buffer were added. Reaction was initiated by the addition of 100 μM ATP and 0.5 μCi of [γ-^32P]-ATP. The reaction mixture was incubated at 30° C. for 1 h, then stopped with 75 mM aq orthophosphoric acid, transferred onto a 96-well P81 filter plate (Whatman), dried, and the extent of CDC25C phosphorylation was assessed by scintillation counting using a Packard TopCount plate reader. The raw assay data was analysed by non-linear regression analysis parameters and IC50 values were determined using the equation: y=A+((B−A)/(1+((C/x)^D))), where y is % inhibition, A is minimum inhibition, B is maximum inhibition, C is EC50, and D is the slope factor.

[2] = test system: A2780/ADR cells; test: Cell viability assay (Alamar Blue, 72 hours), MDR line; format: cell-based, human; settings: paired parental and MDR tumour cell lines (A2780-A2780/ADR, MES-SA-MES-SA/Dx5)
Source text: In vitro cell viability assays have been used to measure the effect of drug accumulation in paired parental and drug resistant tumour cell lines. The pairs used are the human ovarian carcinoma A2780 line with its MDR counterpart A2780/ADR and the human uterine sarcoma MES-SA line with its MDR counterpart MES-SA/Dx5 [Wesolowska O., et al. (2005) Anticancer Res., 25, 383-389].
Method: Cultivated human tumour cells of the ovarian cell line A2780 and its doxorubicin-resistant pair, A2780/ADR and the uterine cell line MES-SA and its doxorubicin-resistant pair, MES-SA/DX5 were seeded at 3000 cells per well in Nunc 96-well tissue culture plates, 100 μl per well in DMEM media containing 10% foetal calf serum and penicillin/streptomycin. […] The plates were then read at 544/595 nm.
The amount of Alamar Blue reagent reacted represents the metabolic activity of the cells. […] The values were calculated from the average of three individual measurements with blank correction (medium-only control).
The assay was performed on the Biomek FxP, automation platform from Beckman Coulter. The plates were read on the Paradigm plate reader supplied by Beckman Coulter. Asymmetry ratios were calculated as the IC50 value of the compound in the drug resistant cells divided by the IC50 value in the parental cells. […]

[3] = target: PLK2 (Homo sapiens (Human), UniProt Q9NYY3); test: PLK selectivity: PLK2 inhibition; format: biochemical; settings: for PLK2 IC50/PLK1 IC50: selectivity ratio
PLK2, sequence (Q9NYY3 whole entry): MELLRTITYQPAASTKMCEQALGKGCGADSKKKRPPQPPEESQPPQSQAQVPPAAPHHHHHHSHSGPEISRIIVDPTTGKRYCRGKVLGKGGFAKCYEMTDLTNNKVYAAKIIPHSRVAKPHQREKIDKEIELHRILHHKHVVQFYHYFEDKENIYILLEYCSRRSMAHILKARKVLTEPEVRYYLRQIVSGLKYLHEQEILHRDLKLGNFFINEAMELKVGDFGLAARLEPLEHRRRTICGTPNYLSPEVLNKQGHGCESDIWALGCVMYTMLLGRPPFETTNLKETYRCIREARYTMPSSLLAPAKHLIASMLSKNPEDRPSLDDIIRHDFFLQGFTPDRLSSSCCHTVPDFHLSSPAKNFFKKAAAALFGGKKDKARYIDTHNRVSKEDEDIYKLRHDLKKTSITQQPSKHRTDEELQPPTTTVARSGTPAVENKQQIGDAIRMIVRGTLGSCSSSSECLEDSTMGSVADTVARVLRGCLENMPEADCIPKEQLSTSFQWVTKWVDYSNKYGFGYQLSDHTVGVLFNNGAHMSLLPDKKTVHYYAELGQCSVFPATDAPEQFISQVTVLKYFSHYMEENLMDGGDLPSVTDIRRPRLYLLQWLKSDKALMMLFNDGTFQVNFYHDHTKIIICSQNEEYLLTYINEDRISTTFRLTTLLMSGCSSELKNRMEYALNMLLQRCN

[4] = target: PLK3 (Homo sapiens (Human), UniProt Q9H4B4); test: PLK selectivity: PLK3 inhibition; format: biochemical; settings: for PLK3 IC50/PLK1 IC50: selectivity ratio
PLK3, sequence (Q9H4B4 whole entry): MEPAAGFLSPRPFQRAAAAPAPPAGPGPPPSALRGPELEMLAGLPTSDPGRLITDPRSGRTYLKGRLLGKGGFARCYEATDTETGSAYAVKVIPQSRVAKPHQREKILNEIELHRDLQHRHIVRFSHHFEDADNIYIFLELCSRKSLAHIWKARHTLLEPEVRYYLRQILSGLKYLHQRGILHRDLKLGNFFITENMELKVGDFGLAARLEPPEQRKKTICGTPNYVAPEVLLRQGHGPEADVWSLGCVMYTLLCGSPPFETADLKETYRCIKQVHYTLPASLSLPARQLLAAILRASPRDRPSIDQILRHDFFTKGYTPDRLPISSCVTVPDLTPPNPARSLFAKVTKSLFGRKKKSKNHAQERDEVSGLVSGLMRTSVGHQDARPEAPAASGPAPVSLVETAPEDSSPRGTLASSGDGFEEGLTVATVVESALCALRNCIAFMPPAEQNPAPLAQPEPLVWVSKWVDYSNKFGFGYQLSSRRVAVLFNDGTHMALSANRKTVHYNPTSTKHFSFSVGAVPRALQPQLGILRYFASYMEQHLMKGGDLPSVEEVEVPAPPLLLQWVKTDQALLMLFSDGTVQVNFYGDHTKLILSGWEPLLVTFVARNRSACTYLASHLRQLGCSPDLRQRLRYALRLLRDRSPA

[5] = Nephelometry kinetic solubility; format: physicochemical
Source text: If a DMSO solution of a water soluble compound is introduced into aqueous buffer, the mixture remains clear unless the aqueous solubility limit is reached. Above the solubility limit, precipitation occurs and light travelling through the turbid suspension is scattered. The measurement of the intensity of the scattered light is the basis of nephelometric solubility determination.
Selected compounds were screened using a nephelometer to identify the concentration at which turbidity occurs, thereby giving an indication of kinetic solubility. By nephelometry (2% DMSO: 98% phosphate buffered saline pH 7.5) compound [254] was freely soluble at 200 μM (>0.11 mg/mL) which is the highest concentration tested in this assay. In contrast, in the same nephelometry assay, the maximum soluble concentration of prior art Example [I-253] of WO 07/095,188 was determined to be 75 μM (Table 6).

[6] = Pharmacokinetics in fasted conscious CD-1 mice (iv and oral); format: in vivo; settings: compared to compounds A-G
Experimental: Preliminary investigations of the pharmacokinetics of selected compounds were carried out in fasted conscious CD-1 mice (25-30 g). Compounds were dosed as 1 mg/kg by intravenous administration or 5-10 mg/kg by oral route. Twenty one male mice per administration route (n=3 mice per time point) received dose solution by single bolus injection in the tail vein or by oral gavage. Blood samples were collected by cardiac puncture at 5, 15, 30, 60, 120, 240 and 360 min following iv administration and at 30, 60, 120, 240, 360, 480 and 1440 min following oral administration. Blood samples were collected into tubes containing the anti-coagulant lithium heparin, mixed and placed promptly on crushed ice. Plasma was derived from whole blood by centrifugation, frozen and stored at −80° C. prior to analysis. Plasma concentrations were determined by liquid chromatography-tandem mass spectrometry in electrospray positive mode (ESI LC/MS/MS) using calibration curves prepared in the appropriate matrix. The lower level of quantification (LLOQ) in all cases was ca. 5 ng/mL. Plasma concentration-time data was processed using the computer program WinNonLin version 5.2 from which areas under the plasma concentration-time curve (AUCall) were calculated by non-compartmental analysis using Model 201 (IV-bolus Input) or Model 200 (Extravascular Input).
FIG. 1 plots the area under the curve (AUC) for plasma concentration vs time for each compound tested. The dosing vehicle across these experiments remained constant (intravenous=citrate buffer pH 3, 1 mL/kg; oral=DMA/PEG400/10 mM Tartrate buffer, pH 4 (1:3:6), 5 ml/kg). FIG. 2 represents the same data in the form of oral bioavailability (% F) for each compound.

[7] = phosphate buffered saline with 2% DMSO, pH 7.5, aqueous buffer, kinetic from dmso stock, 2% DMSO: 98% phosphate buffered saline pH 7.5, highest concentration tested 200 μM, read-out: Nephelometry maximum soluble concentration

human PLK1, sequence (P53350 whole entry): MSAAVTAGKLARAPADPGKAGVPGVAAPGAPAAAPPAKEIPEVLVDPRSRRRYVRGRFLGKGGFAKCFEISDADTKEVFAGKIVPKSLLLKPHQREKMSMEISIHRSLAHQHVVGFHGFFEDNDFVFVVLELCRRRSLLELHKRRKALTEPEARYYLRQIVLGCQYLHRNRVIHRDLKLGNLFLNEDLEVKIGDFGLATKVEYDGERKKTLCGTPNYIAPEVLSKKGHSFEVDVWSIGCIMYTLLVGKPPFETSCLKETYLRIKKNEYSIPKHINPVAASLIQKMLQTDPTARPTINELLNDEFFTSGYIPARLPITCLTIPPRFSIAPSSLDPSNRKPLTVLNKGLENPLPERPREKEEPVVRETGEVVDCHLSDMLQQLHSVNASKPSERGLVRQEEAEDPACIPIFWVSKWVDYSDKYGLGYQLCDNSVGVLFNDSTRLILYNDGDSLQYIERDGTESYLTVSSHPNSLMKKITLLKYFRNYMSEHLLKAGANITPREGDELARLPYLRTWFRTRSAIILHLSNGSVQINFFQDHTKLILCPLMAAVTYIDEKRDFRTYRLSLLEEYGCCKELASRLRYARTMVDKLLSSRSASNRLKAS

COc1cc(C(=O)N[C@H]2CC[C@@H](N3CCOCC3)CC2)ccc1Nc1ncc2c(n1)N(C1CCCC1)CC1(CC1)C(=O)N2C [Compound 391, 4-(9′-cyclopentyl-5′-methyl-6′-oxo-5′,6′,8′,9′-tetrahydrospiro[cyclopropane-1,7′-pyrimido[4,5-b][1,4]diazepine]-2′-ylamino)-3-methoxy-N-((cis)-4-morpholinocyclohexyl)benzamide]
IC50 ([1]; Table 3, read-out: PLK 1 IC50): 100 to 1000 nM

COc1cc(C(=O)N[C@H]2CC[C@H](N3CCN(CC4CC4)CC3)CC2)ccc1Nc1ncc2c(n1)N(C1CCCC1)CC(C)(C)C(=O)N2C [Compound 372, 4-(9-cyclopentyl-5,7,7-trimethyl-6-oxo-6,7,8,9-tetrahydro-5H-pyrimido[4,5-b][1,4]diazepin-2-ylamino)-N-((trans)-4-(4-(cyclopropylmethyl)piperazin-1-yl)cyclohexyl)-3-methoxybenzamide]
cellular efflux (MDR/parental cell asymmetry) [2]: low cellular efflux

COc1cc(C(=O)NC2CN3CCC2CC3)ccc1Nc1ncc2c(n1)N(C1CCCC1)CC1(CCC1)C(=O)N2C (racemic) [Compound 218, (±)-4-(9′-cyclopentyl-5′-methyl-6′-oxo-5′,6′,8′,9′-tetrahydrospiro[cyclobutane-1,7′-pyrimido[4,5-b][1,4]diazepine]-2′-ylamino)-3-methoxy-N-(quinuclidin-3-yl)benzamide]
selectivity for PLK1 versus PLK2 compared to compound [I-4] ([3]; relative to [I-4]): 7 fold
selectivity for PLK1 versus PLK2 compared to compound [I-64] of WO 07/095,188 ([3]; relative to [I-64]): twice as selective
selectivity for PLK1 versus PLK2 compared to compound [I-76] ([3]; relative to [I-76]): ~6 fold
PLK2 IC50/PLK1 IC50 [3]: 35
selectivity for PLK1 versus PLK3 compared to compound [I-4] ([4]; relative to [I-4]): 5 fold
selectivity for PLK1 versus PLK3 compared to compound [I-64] ([4]; relative to [I-64]): 5 fold
selectivity for PLK1 versus PLK3 compared to compound [I-76] ([4]; relative to [I-76]): ~12 fold
PLK3 IC50/PLK1 IC50 [4]: 330

COc1cc(C(=O)NN2CCN(C)CC2)ccc1Nc1ncc2c(n1)N(C1CCCC1)CC1(CC1)C(=O)N2C [Compound 254, 4-(9′-cyclopentyl-5′-methyl-6′-oxo-5′,6′,8′,9′-tetrahydrospiro[cyclopropane-1,7′-pyrimido[4,5-b][1,4]diazepine]-2′-ylamino)-3-methoxy-N-(4-methylpiperazin-1-yl)benzamide]
solubility [5, 7]: ≥ 200 µM
solubility ([5]; phosphate buffered saline with 2% DMSO, pH 7.5, aqueous buffer, kinetic from dmso stock, 2% DMSO: 98% phosphate buffered saline pH 7.5, read-out: Nephelometry soluble concentration): > 110 µg/mL

COc1cc(C(=O)NCC2CCCCN2C)ccc1Nc1ncc2c(n1)N(C1CCCC1)CCC(=O)N2C (centres unmarked) [Compound 202, 4-(9-Cyclopentyl-5-methyl-6-oxo-6,7,8,9-tetrahydro-5H-pyrimido[4,5-b] [1,4]diazepin-2-ylamino)-3-methoxy-N-(1-methyl-piperidin-2-ylmethyl)-benzamide]
IC50 ([1]; Table 2): < 1000 nM

COc1cc(C(=O)N[C@H]2CC[C@H](N3CCN(CC4CC4)CC3)CC2)ccc1Nc1ncc2c(n1)N(C1CCCC1)CCC(=O)N2C [Compound 378, 4-(9-cyclopentyl-5-methyl-6-oxo-6,7,8,9-tetrahydro-5H-pyrimido[4,5-b][1,4]diazepin-2-ylamino)-N-((trans)-4-(4-(cyclopropylmethyl)piperazin-1-yl)cyclohexyl)-3-methoxybenzamide]
oral bioavailability (% F) [6]: markedly superior
systemic exposure (AUC of plasma concentration vs time) ([6]; iv 1 mg/kg and oral 5-10 mg/kg): markedly superior

CCN(CC)CCNC(=O)c1ccc(Nc2ncc3c(n2)N(CC2CC2)CCC(=O)N3C)c(OC)c1 [Compound 240, 4-(9-Cyclopropyl-methyl-5-methyl-6-oxo-6,7,8,9-tetrahydro-5H-pyrimido[4,5-b] [1,4]diazepin-2-ylamino)-N-(2-diethylamino-ethyl)-3-methoxy-benzamide]
IC50 ([1]; Table 2): < 100 nM

COc1cc(C(=O)NC2CCN(C)CC2)ccc1Nc1ncc2c(n1)N(C1CCCC1)CC1(CC1)C(=O)N2C [WO 2007/095188 [I-76], reference compound]
PLK2 IC50/PLK1 IC50 [3]: 6
PLK3 IC50/PLK1 IC50 [4]: 26

COc1cc(C(=O)NC2c3ccccc3C[C@H]2O)ccc1Nc1ncc2c(n1)N(C1CCCC1)CC1(CC1)C(=O)N2C (stereo partly drawn) [Compound 184, 4-(9-Cyclopentyl-5-methyl-6-oxo-6,7,8,9-tetrahydro-5H-spiro[pyrimido[4,5-b] [1,4]diazepin-3,1′-cyclopropane]-2-ylamino)-N-((1S,2R)-2-hydroxy-indan-1-yl)-3-methoxy-benzamide]
IC50 ([1]; Table 2): < 1000 nM

COc1cc(C(=O)NC2CCN(C)CC2)ccc1Nc1ncc2c(n1)N(C(C)C)CC1(CC1)C(=O)N2C [Compound 99, 4-(9-Isopropyl-5-methyl-6-oxo-6,7,8,9-tetrahydro-5H-spiro[pyrimido[4,5-b] [1,4]diazepin-3,1′-cyclopropane]-2-ylamino)-3-methoxy-N-(1-methyl-piperidin-4-yl)-benzamide]
IC50 ([1]; Table 2): < 1000 nM

COc1cc(C(=O)NN2CCN(C)CC2)ccc1Nc1ncc2c(n1)N(C1CCCC1)CC1(CC1)C(=O)N2C [[254]•HCl, 4-(9′-cyclopentyl-5′-methyl-6′-oxo-5′,6′,8′,9′-tetrahydrospiro[cyclopropane-1,7′-pyrimido[4,5-b][1,4]diazepine]-2′-ylamino)-3-methoxy-N-(4-methylpiperazin-1-yl)benzamide•HCl]
solubility ([5]; pH 7.5, read-out: Nephelometry maximum soluble concentration): >200 µM

COc1cc(C(=O)NC2CCC(N3CCCN(Cc4ccccc4)CC3)CC2)ccc1Nc1ncc2c(n1)N(C1CCCC1)CC1(CC1)C(=O)N2C (centres unmarked) [Compound 383, N-(4-(4-benzyl-1,4-diazepan-1-yl)cyclohexyl)-4-(9′-cyclopentyl-5′-methyl-6′-oxo-5′,6′,8′,9′-tetrahydrospiro[cyclopropane-1,7′-pyrimido[4,5-b][1,4]diazepine]-2′-ylamino)-3-methoxybenzamide]
IC50 ([1]; Table 3, read-out: PLK 1 IC50): < 100 nM

COc1cc(C(=O)NC2CCN(C)CC2)ccc1Nc1ncc2c(n1)N(C1CCCC1)CC1(CCC1)C(=O)N2C [WO 2007/095188 [I-64], reference compound]
PLK2 IC50/PLK1 IC50 [3]: 17
PLK3 IC50/PLK1 IC50 [4]: 67

COc1cc(C(=O)NN2CCCC2)ccc1Nc1ncc2c(n1)N(C1CCCC1)CC1(CC1)C(=O)N2C [Example [I-253] of WO 07/095188, reference compound]
solubility [5, 7]: 75 µM

CN1C(=O)CCN(C2CCCC2)c2nc(NCc3ccsc3)ncc21 [Compound 106, 9-Cyclopentyl-5-methyl-2-[(thiophen-3-ylmethyl)-amino]-5,7,8,9-tetrahydro-pyrimido[4,5-b][1,4]di-azepin-6-one]
IC50 ([1]; Table 2): < 1000 nM
